Measured values taken from patent EP0139005A1, “ANTITUMOR COMPOSITION, METHOD FOR TREATING TUMOR, AND USE OF THE COMPOSITION FOR TREATING TUMOR” (Yoshitomi Pharmaceutical Industries, Ltd., priority 1982, dated 1984).

What was measured:
[1] = test system: L1210 leukemia; test: L1210 leukemia implanted intraperitoneally, i.p. treatment, survival (Experimental Example 3); assay type: in vivo, female CDF1 mice; details: for Average Survival Time / Life-Prolongation Ratio (%): once daily for seven days
Experimental: (§1) The life-prolongation ratio was calculated by the following scheme (the same scheme is applied to the subsequent experimental examples).
(§2) Life-prolongation Ratio [formula] T : Average survival days of the treated group
(§3) C : Average survival days of the control group
(§4) Animals survived over 30 days or longer were estimated as 30-day survivors, and the cases where T/C equals to or greater than 125% were regarded as effective.
A plurality of groups each consisting of five heads of female CDF1 mice (8 weeks old) were respectively implanted intraperitoneally with 10 cells of L1210 leukemia. After the next day of the implantation, Y-6430, ESCC and ESCC ethyl ester (hereinafter referred to ESCC-Et) in physiological saline were respectively administered once daily for seven days intraperitoneally, and the average survival days and life-prolongation ratios in each group were calculated.
(§5) All the test animals died of tumor within 30 days.

[2] = test system: P388 leukemia; test: P388 leukemia implanted intraperitoneally, survival (Experimental Example 2); assay type: in vivo, female CDF1 mice; details: for 30-day Survivors / Average Survival Time / Life-Prolongation Ratio (%): once daily for seven days
Experimental: as §1, §2, §3, §4
A plurality of groups each consisting of five heads of female CDF1 mice (7-8 weeks old) were respectively implanted intraperitoneally with 10^6 cells of P388 leukemia. After 24 hours, Y-6430 and ESCC were respectively administered once daily for seven days, and average survival days, life-prolongation ratios and 30-day survivors in each group were calculated.

[3] = Acute toxicity in mice (Experimental Example 11); details: mouse, in vivo, ip; administered intraperitoneally, male ddn mice
Experimental: (§6) Acute toxicity value when Y-6430 was administered intraperitoneally to male ddn mice was 1,500 mgjkg or more. 'Acute toxicity values when AH-44 carcinoma cells were implanted peritoneally and orally to Donryu rats were both 1,000 mg/kg or more.

[4] = test system: sarcoma 180; test: Sarcoma 180 implanted intraperitoneally, survival (Experimental Example 9); assay type: in vivo, male ICR mice; details: once daily for seven days
Experimental: A plurality of groups each consisting of 12 male ICR mice (6-8 weeks old) were implanted intraperitoneally with 2 x 10^6 cells of sarcoma 180. After the next day to the implantation, Y-6430 was administered intraperitoneally or subcutaneously once daily for seven days.

[5] = Acute toxicity in AH-44 carcinoma bearing rats (Experimental Example 11); details: rat, in vivo, Donryu rats with AH-44 carcinoma cells
Experimental: as §6

[6] = test system: L1210 leukemia; test: L1210 leukemia implanted intraperitoneally, oral or subcutaneous treatment, survival (Experimental Example 4); assay type: in vivo, female CDF1 mice; details: for Average Survival Time / Life-Prolongation Ratio (%): once daily for seven days
Experimental: as §1, §2, §3, §4
A plurality of groups each consisting of five female CDF1 mice (7-8 weeks old) were respectively implanted intraperitoneally with 10 cells of L1210 leukemia. After the next day of the implantation, the test animals were administered orally or subcutaneously once daily for seven days with Y-6430 or ESCC dissolved in physiological saline, and the average survival days and life-prolongation ratios in each group were calculated.
as §5

[7] = test system: AH272 hepatoma; test: AH272 hepatoma, survival (Experimental Example 8); assay type: in vivo, male Donryu rats; details: once daily from third to sixth day, control 7.9 days
Experimental: A plurality of groups each consisting of six male Donryu rats (7-8 weeks old) were implanted with 2 x 10^6 cells of AH272 hepatoma. After the implantation, Y-6430 dissolved in physiological saline was administered intraperitoneally once daily within the period from the third to sixth day, and the average survival days were calculated, the result being shown in Table 9.
All the test animals were dead within 30 days.

[8] = test system: Ehrlich carcinoma; test: Ehrlich carcinoma implanted subcutaneously, tumor weight (Experimental Example 7); assay type: in vivo, male ICR mice; details: once daily for seven days, 24 hours after final administration, control 399.5 mg
Experimental: A plurality of groups each consisting of six male ICR mice (7-8 weeks old) were respectively implanted subcutaneously with […] Ehrlich carcinoma. After 24 hours, Y-6430 dissolved in physiological saline was administered intraperitoneally once daily for seven days. 24 hours after the final administration, the test animals were killed by ether anesthesia, and the carcinoma of each test animal was exercised and weighed.

[9] = test system: Ehrlich carcinoma; test: Ehrlich carcinoma implanted intraperitoneally, survival (Experimental Example 6); assay type: in vivo, male ICR mice; details: once daily for seven days
Experimental: A plurality of groups each consisting of six male ICR mice (7-8 weeks old) were implanted intraperitoneally with 2 x 10^6 Ehrlich carcinoma. After 24 hours, Y-6430 dissolved in physiological saline was administered intraperitoneally once daily for seven days.

[10] = test system: AH44 hepatoma; test: AH44 hepatoma implanted intraperitoneally, single dose, survival (Experimental Example 5); assay type: in vivo, male Donryu rats; details: once, three days after implantation
Description: A plurality of groups each consisting of six male Donryu rats (7-8 weeks old) were respectively implanted intraperitoneally with 10^6 cells of AH44 hepatoma. Three days after the implantation, each test animal was once administered orally or intraperitoneally with Y-6430.

CCOC(=O)[C@@H](N)CSC(=O)NC.Cl [Y-6430, S-methylcarbamoyl-L-cysteine ethyl ester hydrochloride]
Average Survival Time ([1]; 50 mg/kg/day i.p.): 8.4 days
Life-Prolongation Ratio (%) ([1]; 50 mg/kg/day i.p.): 105%
Average Survival Time ([1]; 100 mg/kg/day i.p.): 9.4 days
Life-Prolongation Ratio (%) ([1]; 100 mg/kg/day i.p.): 118%
Average Survival Time ([1]; 250 mg/kg/day i.p.): 9.8 days
Life-Prolongation Ratio (%) ([1]; 250 mg/kg/day i.p.): 123%
Average Survival Time ([1]; 500 mg/kg/day i.p.): 12.4 days
Life-Prolongation Ratio (%) ([1]; 500 mg/kg/day i.p.): 155%
effectiveness against L1210 leukemia ([1]; group administered with 500 mg/kg i.p.): effective
30-day Survivors ([2]; 100 mg/kg/day i.p.): 0/5
Average Survival Time ([2]; 100 mg/kg/day i.p.): 13.4 days
Life-Prolongation Ratio (%) ([2]; 100 mg/kg/day i.p.): 134%
30-day Survivors ([2]; 100 mg/kg/day p.o.): 0/5
Average Survival Time ([2]; 100 mg/kg/day p.o.): 11.6 days
Life-Prolongation Ratio (%) ([2]; 100 mg/kg/day p.o.): 116%
30-day Survivors ([2]; 250 mg/kg/day i.p.): 0/5
Average Survival Time ([2]; 250 mg/kg/day i.p.): 14.6 days
Life-Prolongation Ratio (%) ([2]; 250 mg/kg/day i.p.): 146%
30-day Survivors ([2]; 250 mg/kg/day p.o.): 0/5
Average Survival Time ([2]; 250 mg/kg/day p.o.): 13.4 days
Life-Prolongation Ratio (%) ([2]; 250 mg/kg/day p.o.): 134%
30-day Survivors ([2]; 500 mg/kg/day i.p.): 0/5
Average Survival Time ([2]; 500 mg/kg/day i.p.): 17.2 days
Life-Prolongation Ratio (%) ([2]; 500 mg/kg/day i.p.): 172%
30-day Survivors ([2]; 500 mg/kg/day p.o.): 0/5
Average Survival Time ([2]; 500 mg/kg/day p.o.): 15.0 days
Life-Prolongation Ratio (%) ([2]; 500 mg/kg/day p.o.): 150%
30-day Survivors ([2]; 1,000 mg/kg/day p.o.): 0/5
Average Survival Time ([2]; 1,000 mg/kg/day p.o.): 16.6 days
Life-Prolongation Ratio (%) ([2]; 1,000 mg/kg/day p.o.): 166%
effectiveness against P388 leukemia ([2]; summary of Tables 2 and 3, T/C equal to or greater than 125% regarded as effective): effective
LD50 [3]: ≥ 1500 mg/kg
30-day Survivors ([4]; 50 mg/kg/day i.p.): 0/12
Average Survival Time ([4]; 50 mg/kg/day i.p.): 25.5 days
Number of Dead Animals ([4]; 50 mg/kg/day i.p.): 0/12
30-day Survivors ([4]; 50 mg/kg/day s.c.): 0/12
Average Survival Time ([4]; 50 mg/kg/day s.c.): 21.9 days
Number of Dead Animals ([4]; 50 mg/kg/day s.c.): 0/12
30-day Survivors ([4]; 100 mg/kg/day i.p.): 5/12
Average Survival Time ([4]; 100 mg/kg/day i.p.): 27.7 days
Number of Dead Animals ([4]; 100 mg/kg/day i.p.): 0/12
30-day Survivors ([4]; 100 mg/kg/day s.c.): 0/12
Average Survival Time ([4]; 100 mg/kg/day s.c.): 23.0 days
Number of Dead Animals ([4]; 100 mg/kg/day s.c.): 0/12
LD50 ([5]; ip, peritoneally): ≥ 1000 mg/kg
LD50 ([5]; po, orally): ≥ 1000 mg/kg
Average Survival Time ([6]; 100 mg/kg/day s.c.): 8.2 days
Life-Prolongation Ratio (%) ([6]; 100 mg/kg/day s.c.): 103%
Average Survival Time ([6]; 250 mg/kg/day p.o.): 9.4 days
Life-Prolongation Ratio (%) ([6]; 250 mg/kg/day p.o.): 115%
Average Survival Time ([6]; 250 mg/kg/day s.c.): 9.2 days
Life-Prolongation Ratio (%) ([6]; 250 mg/kg/day s.c.): 115%
Average Survival Time ([6]; 500 mg/kg/day p.o.): 11.4 days
Life-Prolongation Ratio (%) ([6]; 500 mg/kg/day p.o.): 139%
Average Survival Time ([6]; 500 mg/kg/day s.c.): 10.8 days
Life-Prolongation Ratio (%) ([6]; 500 mg/kg/day s.c.): 135%
Average Survival Time ([6]; 1,000 mg/kg/day p.o.): 13.8 days
Life-Prolongation Ratio (%) ([6]; 1,000 mg/kg/day p.o.): 168%
effectiveness against L1210 leukemia ([6]; oral and subcutaneous administration): effective
Average Survival Time ([7]; 100 mg/kg/day i.p.): 10.5 days
Average Survival Time ([7]; 250 mg/kg/day i.p.): 15.0 days
Average Tumor Weight ([8]; 50 mg/kg/day i.p.): 194.0 mg
Average Tumor Weight ([8]; 100 mg/kg/day i.p.): 146.6 mg
30-day Survivors ([9]; 50 mg/kg/day i.p.): 0/12
Average Survival Time ([9]; 50 mg/kg/day i.p.): 18.6 days
30-day Survivors ([9]; 100 mg/kg/day i.p.): 6/12
Average Survival Time ([9]; 100 mg/kg/day i.p.): 26.0 days
30-day Survivors ([10]; 500 mg/kg p.o.): 0/6
Average Survival Time ([10]; 500 mg/kg p.o.): 11.2 days
30-day Survivors ([10]; 1,000 mg/kg i.p.): 1/6
Average Survival Time ([10]; 1,000 mg/kg i.p.): 14.7 days
30-day Survivors ([10]; 1,000 mg/kg p.o.): 0/6
Average Survival Time ([10]; 1,000 mg/kg p.o.): 10.8 days
